Literature values, collected in US9775900B2, “Photodynamic diagnosis, formulations usable as photosensitizers for this purpose, method for the production and use thereof” (Sanochemia Pharmazeutika AG, priority 2015, dated 2017).

Conditions: pure hypericin

Cc1cc(O)c2c(=O)c3c(O)cc(O)c4c5c(O)cc(O)c6c(=O)c7c(O)cc(C)c8c1c2c(c34)c(c78)c65 [hypericin, 1,3,4,6,8,13-hexahydroxy-10,11-dimethylphenanthro (1,10,9,8-opqra) perylene-7,14-dione]
solubility in water: water-insoluble
